In patent US20250195613A1, “COMPOSITIONS AND METHODS FOR REDUCING BIOFILM FORMATION” (Trustees of Tufts College, priority 2022, published 2025):
Entries after “also recorded” stand apart in the source; their conditions may differ.

Columns and labels:
Assay type in all cases: cell-based, Streptococcus mutans
S. mutans UA159 = test: Biofilm growth CFU assay (fraction biofilm and total growth); conditions: for fractional biofilm formation (cells in biofilm relative to whole population), in words / overall (total) growth of the bacterial population / toxicity to S. mutans: 5 h, TH25% with 1% sucrose; for fractional biofilm formation (cells in biofilm relative to whole population), in words: 96-well polystyrene plate; for overall (total) growth of the bacterial population / toxicity to S. mutans: biofilm CFU per ml + supernatant CFU per ml
Description: The bacterial strain S. mutans UA159 (ATCC, 700610) was originally isolated from a child with active cavities. Bacteria were cultivated in Bacto Todd-Hewitt broth (TH; BD, 249240) or brain-heart infusion (BHI; BD, 237500) 1.5% agar plates at 37° C. with 5% CO2. To promote biofilm formation, S. mutans was grown in 25% TH supplemented with 1% sucrose.
(§1) Overnight cultures of S. mutans UA159 were inoculated from glycerol stocks and grown for 12-18 h in 50% TH at 37° C. with 5% CO2. Biofilms were prepared by diluting overnight cultures 1:20 into 50-100 μl of media (TH25% with 1% sucrose) and any polymer solution in a 96-well polystyrene plate for a starting inoculum of 10^7-10^8 CFU per ml. The cultures were then incubated statically for 5 hours at 37° C. with 5% CO2.
To measure total growth and relative biofilm formation, the number of cells in the biofilm and in suspension were counted using a colony forming unit (CFU) assay as previously described. See Werlang, C. A. et al., “Mucin O-glycans suppress quorum-sensing pathways and genetic transformation in Streptococcus mutans,” Nat. Microbiol. 1-10 (2021) doi: 10.1038/s41564-021-00876-1, which is incorporated herein in its entirety by reference for all purposes. Briefly, the supernatant was removed and transferred to a new 96-well plate, the biofilm was washed twice with 100 μl of phosphate-buffered saline (PBS), and the washes were added to the supernatant. The biofilm was then detached and resuspended in 100 μl of PBS by vigorously scraping with a pipette tip for 30 s. Each culture fraction was then serially diluted and plated on BHI agar. Colonies were counted after 24 h growth at 37° C. with 5% CO2. The fraction biofilm was calculated as (biofilm CFU per ml)/(biofilm CFU per ml+supernatant CFU per ml). The total growth was calculated as biofilm CFU per ml+supernatant CFU per ml. All of the conditions had at least three biological replicates (individual data points shown on graphs).

S. mutans biofilms [1] = test: Total biofilm biomass by crystal violet staining; conditions: for total bacterial biomass incl. exopolysaccharides (crystal violet), in words: OD 580 nm
Description: as §1
Total biofilm biomass was measured using crystal violet staining. The supernatant was aspirated, and the biofilm was washed twice with 100 μl of PBS. Then 100 μl of 0.1% crystal violet was added to each well and incubated for 15 minutes at room temperature. The crystal violet solution was removed, and the stained biofilms were washed five times with 200 μl of distilled water. Finally, 100 μl of 30% acetic acid was added to each well to extract the absorbed crystal violet, and the OD was measured at 580 nm on a microtiter plate reader.

S. mutans = test: Polymer attachment assay (bacterial attachment to polymer coating); conditions: coatings from 2 mg per ml polymer on polystyrene, 1 hour at 37° C.
Description: Bacterial attachment to polymer coating was assayed as previously described. See Co, J. Y., Crouzier, T. & Ribbeck, K., “Probing the Role of Mucin-Bound Glycans in Bacterial Repulsion by Mucin Coatings,” Adv. Mater. Interfaces 2, 1500179 (2015), which is incorporated herein in its entirety by reference for all purposes. Briefly, coatings were prepared by incubating 100 μl of polymer solutions (2 mg per ml in Milli-Q purified water) on 96-well polystyrene plates for 2 h at 37° C., followed by three washes with 200 μl of sterile-filtered distilled water. Overnight cultures of S. mutans were centrifuged and resuspended in sterile PBS at an OD600 of 0.4, and 50 μl of the washed culture were added to each well. The bacteria were incubated on the coating for 1 hour at 37° C. To measure cell attachment, unattached bacteria were aspirated, wells were washed three times with 200 μl of PBS, and the remaining bacteria were detached with a pipette and resuspended in PBS before being quantified by a CFU assay.

S. mutans biofilms [2] = test: Confocal microscopy of SYTO9-stained biofilms; conditions: SYTO9 stain
Description: For confocal microscopy, S. mutans biofilms were prepared as described above on 96-well glass-bottom plates with 5 nM of SYTO9 green fluorescent nucleic acid stain (ThermoFisher, S34854) added to the cultures. Cultures were imaged on a confocal laser-scanning microscope (LSM 800; Zeiss) with a 63×/1.4 NA oil immersion objective with a step size of 0.5 μm. The excitation wavelength for SYTO9 was 488 nm. At least three stacks were recorded for each well, and at least three independent wells were analyzed for each condition. Images were analyzed with Zeiss ZEN 2.1 imaging software (Thornwood, NY, USA).

Compound	fractional biofilm formation (cells in biofilm relative to whole population), in words (S. mutans UA159)	overall (total) growth of the bacterial population / toxicity to S. mutans (S. mutans UA159)	total bacterial biomass incl. exopolysaccharides (crystal violet), in words (S. mutans biofilms [1])	biofilm fraction of culture (S. mutans UA159; 0.5% MUC5B mucin) [%]	reduction of biofilm biomass (S. mutans biofilms [1]; crystal violet staining) [%]	S. mutans binding to polymer coating (S. mutans)	S. mutans binding to polymer coating (S. mutans; listed as MUC5B mucin)	surface attachment / community structure by confocal microscopy (S. mutans biofilms [2])	surface attachment / community structure by confocal microscopy (S. mutans biofilms [2]; listed as mucin)
CC(=O)N[C@H]1[C@H]([C@H](O)[C@H](O)CO)OC(O)(C(=O)O)C[C@@H]1O (stereo partly drawn) [soluble NeuNAc, N-Acetylneuraminic acid]	small proportional reduction in the fraction of biofilm	toxic to S. mutans; also recorded: strong killing effect	reduction in total bacterial biomass	–	–	–	–	–	–
CC(=O)N[C@H]1C(O)O[C@H](CO)[C@H](O)[C@@H]1O (stereo partly drawn) [Soluble GalNAc, N-acetyl galactosamine]	do not have a statistically significant impact	–	–	–	–	–	–	–	–
MUC5B: mucin purified by liquid chromatography from pooled human submandibular saliva	–	do not affect the overall growth	reduce the total bacterial biomass	30	77	do not strongly bind	did not bind	no longer attached to the surface	no longer attach to the surface
